{"source": "paper PMC9415731", "about": "“Evaluation of PepT1 (SLC15A1) Substrate Characteristics of Therapeutic Cyclic Peptides” (Pharmaceutics, 2022)", "key": {"hPepT1 (SLC15A1) [1]": {"target": "T1, hPepT1 (SLC15A1) (Homo sapiens, UniProt P46059)", "T1 construct": "host or cells: CHO-K1 (clones CHO-hPepT1-M5 and CHO-hPepT1-200)", "T1 sequence (P46059 1-708)": "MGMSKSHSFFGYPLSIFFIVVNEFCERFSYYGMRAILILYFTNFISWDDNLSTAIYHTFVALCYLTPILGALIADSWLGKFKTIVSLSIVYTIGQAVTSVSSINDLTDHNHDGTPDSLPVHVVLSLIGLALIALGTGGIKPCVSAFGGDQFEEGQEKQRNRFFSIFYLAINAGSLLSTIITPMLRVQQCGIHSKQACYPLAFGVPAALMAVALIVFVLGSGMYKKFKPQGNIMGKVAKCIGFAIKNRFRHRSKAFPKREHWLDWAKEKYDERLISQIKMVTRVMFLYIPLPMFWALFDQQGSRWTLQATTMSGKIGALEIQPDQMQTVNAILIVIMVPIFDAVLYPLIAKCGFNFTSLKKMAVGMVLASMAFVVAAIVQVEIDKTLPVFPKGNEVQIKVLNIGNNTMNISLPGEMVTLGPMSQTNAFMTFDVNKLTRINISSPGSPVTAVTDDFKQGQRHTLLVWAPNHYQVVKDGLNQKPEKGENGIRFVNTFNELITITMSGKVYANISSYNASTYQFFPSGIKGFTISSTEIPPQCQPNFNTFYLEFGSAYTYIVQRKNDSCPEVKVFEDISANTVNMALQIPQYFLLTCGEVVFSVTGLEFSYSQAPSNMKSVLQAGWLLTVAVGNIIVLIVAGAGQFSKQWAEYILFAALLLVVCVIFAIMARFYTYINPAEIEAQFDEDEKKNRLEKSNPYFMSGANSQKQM", "experiment": "Inhibition of Gly-Sar uptake in hPepT1 overexpressing CHO-K1 clones (semi-high-throughput 96-well assay)", "assay_type": "cell-based", "procedure": "In a second step, inhibition of hPepT1 by losartan, one of the strongest inhibitors of this transporter, was tested in both clones. Inhibition experiments were conducted as previously described at a Gly-Sar concentration of 20 µM [13]. In brief, cells were seeded in 96-well plates 1 d before the assay at a concentration of 5 × 10^4 per well. On the day of the inhibition experiment, cells were washed once with MES buffer (100 µL/well) and subsequently incubated with 20 µM Gly-Sar and losartan (0.1–5000 µM), all prepared in MES buffer. After an incubation period of 10 min at 37 °C on a rotary shaker (450 rpm), transport was terminated by removing the solution and washing the cells with ice-cold MES buffer thrice while the plate was kept on ice. Afterwards, cells were lysed in the 96-well cell culture plate with aqueous NH4OH (10%, 50 µL/well), and sample preparation was performed as described previously. Inhibition in the clone CHO-hPepT1-M5 was also tested with Gly-Pro (0.1–5000 µM) as described for losartan.\nThe cyclic peptides were first evaluated for hPepT1 inhibition with the semi-high-throughput assay in 96-well plates established and validated earlier, but using CHO-hPepT1-M5 instead of Caco-2 cells. Cells were seeded 2 d before the assay at a concentration of 5 × 10^4/well, and the assay was conducted as published previously. Each concentration was tested in octuplet, and each experiment performed thrice.\n(§1) Nonlinear regression curves were calculated with GraphPad Prism version 9.3.1 (GraphPad Software Inc., La Jolla, CA, USA) using the four-parameter fit (sigmoidal dose-response curves with variable slope) for inhibition experiments of a one-phase association nonlinear curve fit for the Gly-Sar uptake. […] A p-value < 0.05 was considered significant."}, "[2]": {"details": "oral, Beagle dogs; ref Sauter et al., unpublished data; cited from earlier work"}, "hPepT1 (SLC15A1) [3]": {"target": "T1, hPepT1 (SLC15A1)", "experiment": "Uptake of cyclic peptides in CHO-hPepT1-M5 cells compared with parental CHO-K1 cells, with and without Gly-Pro", "assay_type": "cell-based", "details": "for hPepT1 substrate characteristics (conclusion): uptake in CHO-hPepT1-M5 vs CHO-K1 cells, with and without Gly-Pro", "procedure": "For investigating the possible hPepT1 substrate characteristics of the cyclic peptides, their uptake was measured in the CHO-hPepT1-M5 clone with and without inhibition by Gly-Pro and compared with the CHO-K1 parental clone.\nFor each sample, 5 × 10^5 cells were suspended in 1.5 mL low-binding reaction tubes and washed once in MES buffer. Subsequently, cells were incubated in 100 µL of the respective cyclic peptide solution in MES with or without 20 mM Gly-Pro at 37 °C for 10 min on a rotary shaker (450 rpm). Cells were then washed twice with 0.4 mL ice-cold MES buffer before further proceeding as described in Section 2.8. Each concentration was tested in triplicate, and the experiment was conducted at least thrice.\nCell lysis was performed with 50 µL of 10% aqueous ammonia, and the lysates acidified with 50 µL of 20% aqueous FA to ensure stability of the peptide therapeutics during sample processing. Sample preparation and UPLC–MS/MS measurements were performed as previously described for plasma.\nas §1"}, "[4]": {"details": "CHO-hPepT1-M5 cells, 20 µM Gly-Sar, inhibitor 0.1-5000 µM, MES buffer pH 6.0, 10 min, 37 °C, UPLC-MS/MS, mean ± S.E.M. of three independent experiments, each concentration in sextuplets, read-out: IC50 for inhibition of the Gly-Sar uptake"}}, "note": "Like-named read-outs stand apart in the source and are kept apart here. Numbered stars: 1 amine (or outer) side, 2 acyl side, 3 side chain; on linkers, the order of the positions; unused ones are H or OH. Square brackets hold non-standard residues; d marks the D form. Side chains are listed from the residue outwards. Peptide text beside a SMILES is read from it. * marks the point of attachment. Ethylenediamine = C(CN[*:2])N[*:1]; Hyp = O=C(O)[C@@H]1C[C@@H](O)CN1; Phg = N[C@H](C(=O)O)c1ccccc1; CO = O=C([*:1])[*:2]; Bn = c1ccc(C*)cc1", "data": [{"smiles": "CCCCc1nc(Cl)c(CO)n1Cc1ccc(-c2ccccc2-c2nn[nH]n2)cc1", "note": "[losartan]", "values": [{"measurement": "Inhibition of the Gly-Sar uptake, shape of inhibition curve", "setting": "hPepT1 (SLC15A1) [1]; CHO-hPepT1-200 cells, 20 µM Gly-Sar, losartan 0.1-5000 µM, MES buffer pH 6.0, 10 min, 37 °C, compared with CHO-hPepT1-M5", "value": "the inhibition curve was much flatter"}, {"measurement": "IC50", "setting": "hPepT1 (SLC15A1) [1]; [4]", "value": "37 ± 4.8", "unit": "µM"}]}, {"smiles": "C[C@@H](O)[C@@H]1NC(=O)[C@H](CCCCN)NC(=O)[C@@H](Cc2c[nH]c3ccccc23)NC(=O)[C@H](Cc2ccccc2)NC(=O)[C@@H](NC(=O)[C@H](N)Cc2ccccc2)CSSC[C@@H](C(=O)N[C@H](CO)[C@@H](C)O)NC1=O", "note": "[octreotide]", "values": [{"measurement": "Bioavailability", "setting": "[2]", "value": "> 1", "unit": "%"}, {"measurement": "IC50", "setting": "hPepT1 (SLC15A1) [1]", "value": "4200 ± 1600", "unit": "µM"}, {"measurement": "hPepT1 substrate characteristics (conclusion)", "setting": "hPepT1 (SLC15A1) [3]", "value": "not transported by hPepT1"}]}, {"smiles": "NCCCC[C@@H]1NC(=O)[C@@H](Cc2c[nH]c3ccccc23)NC(=O)[C@H](c2ccccc2)NC(=O)[C@@H]2C[C@@H](OC(=O)NCCN)CN2C(=O)[C@H](Cc2ccccc2)NC(=O)[C@H](Cc2ccc(OCc3ccccc3)cc2)NC1=O", "note": "[pasireotide] (cyclo([Hyp]([CO-Ethylenediamine])[Phg][dW]KY(Bn)F))", "values": [{"measurement": "Bioavailability", "setting": "[2]", "value": "> 1", "unit": "%"}, {"measurement": "IC50", "setting": "hPepT1 (SLC15A1) [1]", "value": "530 ± 110", "unit": "µM"}, {"measurement": "Difference in uptake between cells without (CHO-K1) and with hPepT1 overexpression (CHO-hPepT1-M5)", "setting": "hPepT1 (SLC15A1) [3]; 5 x 10^5 cells in suspension, MES buffer pH 6, 10 min, 37 °C, intracellular quantification by UPLC-MS/MS, three experiments in triplicate, two-way ANOVA with Bonferroni post hoc test", "value": "no obvious difference in the uptake"}, {"measurement": "hPepT1 substrate characteristics (conclusion)", "setting": "hPepT1 (SLC15A1) [3]", "value": "not transported by hPepT1"}, {"measurement": "Influence of the PepT1 inhibitor Gly-Pro on the uptake", "setting": "hPepT1 (SLC15A1) [3]; with or without 20 mM Gly-Pro, CHO-hPepT1-M5 and CHO-K1 cells, MES buffer pH 6, 10 min, 37 °C, UPLC-MS/MS, three experiments in triplicate", "value": "no significant influence on the uptake"}]}, {"smiles": "NCC(=O)N1CCC[C@H]1C(=O)O", "note": "[Gly-Pro] (H-Gly-Pro-OH)", "values": [{"measurement": "IC50", "setting": "hPepT1 (SLC15A1) [1]; [4]", "value": "196 ± 41", "unit": "µM"}]}]}
